Consider 14 compounds from ChEMBL document CHEMBL5724914, “Linking interpersonal differences in gut microbiota composition and drug biotransformation activity” (2024).

Data set [1] in a line: The drug is tested on Z-024 corresponding to pig gut metagenome with ENA study accession number: PRJEB37062 and ENA sample accession number: ERS12561823 for biotransformation under anaerobic condition. The drug concentrations were measured over 9 timepoints collected between 0 and 24 hours of incubation by liquid-chromatography-coupled mass spectrometry (LC–MS). The settings on record: 2 µM.

Data set [2] in a line: The drug is tested on Z-012 corresponding to metagenome with ENA study accession number: PRJEB37062 and ENA sample accession number: ERS12561812 for biotransformation under anaerobic condition. The drug concentrations were measured over 9 timepoints collected between 0 and 24 hours of incubation by liquid-chromatography-coupled mass spectrometry (LC–MS). Conditions: 2 µM.

Data set [3] in a line: The drug is tested on Z-006 corresponding to mouse gut metagenome with ENA study accession number: PRJEB37062 and ENA sample accession number: ERS12561806 for biotransformation under anaerobic condition. The drug concentrations were measured over 9 timepoints collected between 0 and 24 hours of incubation by liquid-chromatography-coupled mass spectrometry (LC–MS). The settings on record: 2 µM.

Data set [4] can be described thus: The drug is tested on Z-002 corresponding to rabbit gut metagenome with ENA study accession number: PRJEB37062 and ENA sample accession number: ERS12561802 for biotransformation under anaerobic condition. The drug concentrations were measured over 9 timepoints collected between 0 and 24 hours of incubation by liquid-chromatography-coupled mass spectrometry (LC–MS). Conditions: 2 µM.

A short description of data set [5]: The drug is tested on WLS-170 corresponding to human gut metagenome with ENA study accession number: PRJEB37062 and ENA sample accession number: ERS12561762 for biotransformation under anaerobic condition. The drug concentrations were measured over 9 timepoints collected between 0 and 24 hours of incubation by liquid-chromatography-coupled mass spectrometry (LC–MS). Conditions: 2 µM.

For data set [6] the following is noted: human gut metagenome, 24 h, 2 µM.
For data set [7] the following is noted: human gut metagenome, 24 h, 2 µM. The source holds these as a separate data set.
The conditions of data set [8]: human gut metagenome, 24 h, 2 µM. The source holds these as a separate data set.
The conditions of data set [9]: human gut metagenome, 24 h, 2 µM. This is another data set of the same source.
Note: call rule not given here.

For the compound `O=C1CN2Cc3c(ccc(Cl)c3Cl)N=C2N1` [ANAGRELIDE], the “Bacterial Biotransformation” value is “Compound metabolized” in data set [1]; “Compound NOT metabolized” in data set [2]; “Compound NOT metabolized” in [3]; “Compound NOT metabolized” in data set [4]; “Compound metabolized” in [5]; “Compound NOT metabolized” in data set [6]. In addition, the results for the “Bacterial Biotransformation” value in data set [7], in data set [8] and in data set [9] were “Compound NOT metabolized”, “Compound NOT metabolized” and “Compound metabolized”, respectively.
Turning to `CN(C)C(=O)Oc1cc(OC(=O)N(C)C)cc(C(O)CNC(C)(C)C)c1` (stereo unspecified) [BAMBUTEROL], the “Bacterial Biotransformation” value in [1] is “Compound NOT metabolized”; in [2], “Compound NOT metabolized”; in data set [3], “Compound NOT metabolized”; in data set [4], “Compound metabolized”; in [5] it was “Compound NOT metabolized”; in data set [6], “Compound NOT metabolized”. Besides, the entries for the “Bacterial Biotransformation” value in data set [7], in data set [8] and in data set [9] were “Compound metabolized”, “Compound NOT metabolized” and “Compound NOT metabolized”, respectively.
Take `CC(C)C[C@H]1C(=O)N2CCC[C@H]2[C@]2(O)O[C@](NC(=O)[C@@H]3C=C4c5cccc6[nH]c(Br)c(c56)C[C@H]4N(C)C3)(C(C)C)C(=O)N12.CS(=O)(=O)O` [BROMOCRIPTINE MESYLATE]: the “Bacterial Biotransformation” value was “Compound metabolized” in [1]; “Compound metabolized” in data set [2]; “Compound metabolized” in [3]; “Compound metabolized” in data set [4]; “Compound metabolized” in [5]; “Compound NOT metabolized” in data set [6]. In addition, the results for the “Bacterial Biotransformation” value in data set [7], in data set [8] and in data set [9] were “Compound metabolized”, “Compound metabolized” and “Compound NOT metabolized”, respectively.
For the compound `CC(NC(C)(C)C)C(=O)c1cccc(Cl)c1` (stereo unspecified) [BUPROPION], the “Bacterial Biotransformation” value in data set [1], in data set [2], in [3], in data set [4], in data set [5] and in data set [6] was “Compound NOT metabolized” throughout. The “Bacterial Biotransformation” value in data set [7], in [8] and in data set [9] was “Compound NOT metabolized” throughout.
As to `O=C1CC2(CCCC2)CC(=O)N1CCCCN1CCN(c2ncccn2)CC1` [BUSPIRONE], the “Bacterial Biotransformation” value in data set [1] is reported as “Compound NOT metabolized”; in [2] it was “Compound NOT metabolized”; in data set [3], “Compound NOT metabolized”; in data set [4], “Compound metabolized”; in [5], “Compound metabolized”; in data set [6] it was “Compound NOT metabolized”. Moreover, the entries for the “Bacterial Biotransformation” value in data set [7], in data set [8] and in data set [9] were “Compound metabolized”, “Compound NOT metabolized” and “Compound NOT metabolized”, respectively.
For `CCCC(C)(COC(N)=O)COC(=O)NC(C)C` (stereo unspecified) [CARISOPRODOL], the “Bacterial Biotransformation” value in data set [1], in data set [2], in data set [3], in [4], in data set [5] and in data set [6] was “Compound metabolized” throughout. Besides, the “Bacterial Biotransformation” value is listed as “Compound NOT metabolized” in data set [7], “Compound metabolized” in data set [8] and “Compound metabolized” in [9].
As to `COc1ccccc1OCCNCC(O)COc1cccc2[nH]c3ccccc3c12` (stereo unspecified) [CARVEDILOL], the “Bacterial Biotransformation” value is on record as “Compound metabolized” in data set [1]; “Compound NOT metabolized” in data set [2]; “Compound NOT metabolized” in data set [3]; “Compound NOT metabolized” in data set [4]; “Compound metabolized” in data set [5]; “Compound metabolized” in data set [6]. Besides, the “Bacterial Biotransformation” value in data set [7] is reported as “Compound metabolized”; in [8] it was “Compound NOT metabolized”; in data set [9], “Compound NOT metabolized”.
In the case of `CN1CCC[C@@H]1CCO[C@](C)(c1ccccc1)c1ccc(Cl)cc1.O=C(O)/C=C/C(=O)O` [CLEMASTINE FUMARATE], the “Bacterial Biotransformation” value in data set [1] was “Compound NOT metabolized”; in [2], “Compound NOT metabolized”; in data set [3] it was “Compound NOT metabolized”; in data set [4] it was “Compound NOT metabolized”; in data set [5] it was “Compound metabolized”; in data set [6], “Compound NOT metabolized”. In addition, the “Bacterial Biotransformation” value in data set [7], in data set [8] and in data set [9] was “Compound metabolized” in each case.
Take `CC(C)(C)NCC(O)c1cc(Cl)c(N)c(Cl)c1` (stereo unspecified) [CLENBUTEROL]: the “Bacterial Biotransformation” value in [1], in [2], in data set [3], in [4], in data set [5] and in [6] was “Compound NOT metabolized” throughout. In addition, the “Bacterial Biotransformation” value in data set [7], in data set [8] and in data set [9] was “Compound NOT metabolized” each time.
Regarding `C[N+]12CCC(CC1)C(OC(=O)C(O)(c1ccccc1)c1ccccc1)C2.[Br-]` (stereo unspecified) [CLIDINIUM BROMIDE], the “Bacterial Biotransformation” value is “Compound metabolized” in [1]; “Compound NOT metabolized” in data set [2]; “Compound NOT metabolized” in data set [3]; “Compound NOT metabolized” in [4]; “Compound metabolized” in data set [5]; “Compound NOT metabolized” in data set [6]. In addition, the “Bacterial Biotransformation” value in data set [7] is “Compound metabolized”; in data set [8], “Compound NOT metabolized”; in data set [9] it was “Compound NOT metabolized”.
`Clc1cccc(Cl)c1N=C1NCCN1` [CLONIDINE]: the “Bacterial Biotransformation” value in [1] is on record as “Compound NOT metabolized”; in data set [2], “Compound metabolized”; in data set [3], “Compound NOT metabolized”; in [4] it was “Compound metabolized”; in data set [5] it was “Compound metabolized”; in [6], “Compound NOT metabolized”. The entries for the “Bacterial Biotransformation” value in [7], in data set [8] and in [9] were “Compound metabolized”, “Compound NOT metabolized” and “Compound NOT metabolized”, respectively.
On to `COC(=O)[C@H](c1ccccc1Cl)N1CCc2sccc2C1.O=S(=O)(O)O` [CLOPIDOGREL BISULFATE], for which the “Bacterial Biotransformation” value in [1], in data set [2], in data set [3], in data set [4], in [5] and in [6] was “Compound metabolized” in each case. For the same compound, the “Bacterial Biotransformation” value in data set [7] is listed as “Compound metabolized”; in [8] it was “Compound NOT metabolized”; in data set [9] it was “Compound metabolized”.
`O=P1(N(CCCl)CCCl)NCCCO1` (stereo unspecified) [CYCLOPHOSPHAMIDE ANHYDROUS]: the “Bacterial Biotransformation” value is given as “Compound NOT metabolized” in [1]; “Compound NOT metabolized” in data set [2]; “Compound NOT metabolized” in data set [3]; “Compound NOT metabolized” in [4]; “Compound metabolized” in data set [5]; “Compound NOT metabolized” in [6]. Moreover, the “Bacterial Biotransformation” value in data set [7] is “Compound metabolized”; in data set [8], “Compound NOT metabolized”; in data set [9], “Compound NOT metabolized”.
Turning to `Br.COc1ccc2c(c1)[C@]13CCCC[C@@H]1[C@H](C2)N(C)CC3.O` [DEXTROMETHORPHAN HYDROBROMIDE], the “Bacterial Biotransformation” value in data set [1] is listed as “Compound metabolized”; in data set [2], “Compound NOT metabolized”; in data set [3], “Compound NOT metabolized”; in data set [4], “Compound metabolized”; in [5] it was “Compound NOT metabolized”; in [6] it was “Compound NOT metabolized”. Also, the results for the “Bacterial Biotransformation” value in data set [7], in [8] and in data set [9] were “Compound metabolized”, “Compound NOT metabolized” and “Compound NOT metabolized”, respectively.
